Measurements taken from ChEMBL document CHEMBL4477229, “Design and Characterization of Superpotent Bivalent Ligands Targeting Oxytocin Receptor Dimers via a Channel-Like Structure” (J Med Chem, 2016).
Residue numbers refer to the chain shown, from its start. pEC50: −log10 of the molar value. Active and inactive are the calls of the source. The rule behind the calls is not given here. Numbered stars: 1 amine (or outer) side, 2 acyl side, 3 side chain; on linkers, the order of the positions; unused ones are H or OH. Bridge positions count the residues as written; N and C are the ends. Square brackets hold non-standard residues; d marks the D form. Peptide text beside a SMILES is read from it. I, II: the chains in the order shown. * marks the point of attachment. Sebacoyl = O=C(CCCCCCCCC(=O)[*:2])[*:1]; C14 diacid = O=C(O)CCCCCCCCCCCCC(=O)*; C12 diacid = O=C(O)CCCCCCCCCCC(=O)*; Adipoyl = O=C(CCCCC(=O)[*:2])[*:1]; Octanoyl = CCCCCCCC(=O)*; Mpa = O=C(O)CCS

Assays:
Oxytocin receptor [1] = target: T1, Oxytocin receptor (Homo sapiens, UniProt P30559, C47A/V43A); experiment: (§1) Agonist activity at human oxytocin receptor V43A/C47A double mutant expressed in HEK293 cells coexpressing Rluc8-tagged Galphaq, N-terminal GFP-tagged Ggamma2 and Gbeta1 protein incubated for 2 mins by Gq protein activation based BRET assay; format: cell-based
[2] = test system: T2, Oxytocin receptor (Homo sapiens), P30559 [V43A,C47A]; experiment: as §1; format: cell-based; set-up: unit not given here
T2 sequence (whole entry): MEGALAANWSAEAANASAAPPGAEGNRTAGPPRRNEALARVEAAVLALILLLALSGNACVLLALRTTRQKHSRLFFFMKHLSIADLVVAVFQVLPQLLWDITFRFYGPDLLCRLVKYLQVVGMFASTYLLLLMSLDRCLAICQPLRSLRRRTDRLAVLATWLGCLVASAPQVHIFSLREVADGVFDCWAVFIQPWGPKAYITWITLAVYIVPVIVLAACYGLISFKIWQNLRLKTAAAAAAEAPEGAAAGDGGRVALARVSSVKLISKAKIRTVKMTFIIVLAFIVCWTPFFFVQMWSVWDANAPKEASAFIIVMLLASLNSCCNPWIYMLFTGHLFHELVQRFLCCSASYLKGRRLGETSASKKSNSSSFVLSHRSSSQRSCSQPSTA

Oxytocin receptor [3] = target: T3, Oxytocin receptor (Homo sapiens, UniProt P30559); experiment: (§2) Agonist activity at human oxytocin receptor expressed in HEK293 cells coexpressing Rluc8-tagged Galphaq, N-terminal GFP-tagged Ggamma2 and Gbeta1 protein incubated for 2 mins by Gq protein activation based BRET assay; format: cell-based
T3 sequence (P30559 whole entry): T2 sequence (whole entry) with A43V, A47C

[4] = target: T4, Oxytocin receptor (Homo sapiens) (UniProt P30559); experiment: as §2; format: cell-based; set-up: unit not given here
T4 sequence (whole entry): T2 sequence (whole entry) with A43V, A47C

[5] = test system: T5, Oxytocin receptor (Homo sapiens), P30559 [C47A]; experiment: (§3) Agonist activity at human oxytocin receptor C47A mutant expressed in HEK293 cells coexpressing Rluc8-tagged Galphaq, N-terminal GFP-tagged Ggamma2 and Gbeta1 protein incubated for 2 mins by Gq protein activation based BRET assay; format: cell-based; set-up: unit not given here
T5 sequence (whole entry): T2 sequence (whole entry) with A43V

Oxytocin receptor [6] = target: T6, Oxytocin receptor (Homo sapiens, UniProt P30559, C47A); experiment: as §3; format: cell-based
T6 sequence (P30559 whole entry C47A): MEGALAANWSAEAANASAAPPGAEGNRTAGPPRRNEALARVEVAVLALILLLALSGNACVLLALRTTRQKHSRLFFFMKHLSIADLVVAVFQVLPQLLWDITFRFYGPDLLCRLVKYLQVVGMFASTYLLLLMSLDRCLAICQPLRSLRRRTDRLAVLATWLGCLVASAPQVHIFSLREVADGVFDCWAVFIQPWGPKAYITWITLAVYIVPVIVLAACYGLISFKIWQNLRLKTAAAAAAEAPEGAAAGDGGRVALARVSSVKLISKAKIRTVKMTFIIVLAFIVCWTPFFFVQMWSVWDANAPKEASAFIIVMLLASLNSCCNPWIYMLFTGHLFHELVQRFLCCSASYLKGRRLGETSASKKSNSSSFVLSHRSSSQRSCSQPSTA

[7] = target: T4, Oxytocin receptor (Homo sapiens); experiment: (§4) Agonist activity at human oxytocin receptor expressed in HEK293 cells coexpressing Rluc8-tagged Galphaq, N-terminal GFP-tagged Ggamma2 and Gbeta1 protein incubated for 2 mins in presence of TMH5-TAT peptide by Gq protein activation based BRET assay; format: cell-based; set-up: unit not given here
Oxytocin receptor [8] = target: T3, Oxytocin receptor; experiment: (§5) Agonist activity at human oxytocin receptor expressed in HEK293 cells coexpressing Rluc8-tagged Galphaq, N-terminal GFP-tagged Ggamma2 and Gbeta1 protein incubated for 2 mins in presence of TMH1-TAT peptide by Gq protein activation based BRET assay; format: cell-based
[9] = target: T4, Oxytocin receptor (Homo sapiens); experiment: as §5; format: cell-based; set-up: unit not given here
Oxytocin receptor [10] = target: T3, Oxytocin receptor; experiment: Agonist activity at human oxytocin receptor low affinity site expressed in HEK293 cells coexpressing Rluc8-tagged Galphaq, N-terminal GFP-tagged Ggamma2 and Gbeta1 protein incubated for 2 mins in presence of TMH5-TAT peptide by Gq protein activation based BRET assay; format: cell-based
Oxytocin receptor [11] = target: T3, Oxytocin receptor; experiment: Agonist activity at human oxytocin receptor high affinity site expressed in HEK293 cells coexpressing Rluc8-tagged Galphaq, N-terminal GFP-tagged Ggamma2 and Gbeta1 protein incubated for 2 mins by Gq protein activation based BRET assay; format: cell-based
Oxytocin receptor [12] = target: T3, Oxytocin receptor; experiment: Agonist activity at human oxytocin receptor high affinity site expressed in HEK293 cells coexpressing Rluc8-tagged Galphaq, N-terminal GFP-tagged Ggamma2 and Gbeta1 protein incubated for 2 mins in presence of TMH5-TAT peptide by Gq protein activation based BRET assay; format: cell-based
Oxytocin receptor [13] = target: T3, Oxytocin receptor; experiment: Agonist activity at human oxytocin receptor low affinity site expressed in HEK293 cells coexpressing Rluc8-tagged Galphaq, N-terminal GFP-tagged Ggamma2 and Gbeta1 protein incubated for 2 mins by Gq protein activation based BRET assay; format: cell-based
Oxytocin receptor [14] = target: T3, Oxytocin receptor; experiment: as §4; format: cell-based
Oxytocin receptor [15] = target: T1, Oxytocin receptor; experiment: Agonist activity at human oxytocin receptor V43A/C47A double mutant high affinity site expressed in HEK293 cells coexpressing Rluc8-tagged Galphaq, N-terminal GFP-tagged Ggamma2 and Gbeta1 protein incubated for 2 mins by Gq protein activation based BRET assay; format: cell-based
Oxytocin receptor [16] = target: T6, Oxytocin receptor; experiment: Agonist activity at human oxytocin receptor C47A mutant high affinity site expressed in HEK293 cells coexpressing Rluc8-tagged Galphaq, N-terminal GFP-tagged Ggamma2 and Gbeta1 protein incubated for 2 mins by Gq protein activation based BRET assay; format: cell-based
Oxytocin receptor [17] = target: T1, Oxytocin receptor; experiment: Agonist activity at human oxytocin receptor V43A/C47A double mutant low affinity site expressed in HEK293 cells coexpressing Rluc8-tagged Galphaq, N-terminal GFP-tagged Ggamma2 and Gbeta1 protein incubated for 2 mins by Gq protein activation based BRET assay; format: cell-based
Oxytocin receptor [18] = target: T6, Oxytocin receptor; experiment: Agonist activity at human oxytocin receptor C47A mutant low affinity site expressed in HEK293 cells coexpressing Rluc8-tagged Galphaq, N-terminal GFP-tagged Ggamma2 and Gbeta1 protein incubated for 2 mins by Gq protein activation based BRET assay; format: cell-based
Danio rerio = experiment: Effect on social behavior in zebra fish assessed as increase in time spent swimming parallel to nacre mutant fish over time spent shoaling close to wild type fish at 0.75 ng/kg, im; format: functional, organism-based
[19] = target: T4, Oxytocin receptor (Homo sapiens); experiment: Ratio of EC50 for human oxytocin receptor low affinity site expressed in HEK293 cells coexpressing Rluc8-tagged Galphaq, N-terminal GFP-tagged Ggamma2 and Gbeta1 protein to Ki for human oxytocin receptor low affinity site expressed in COS7 cell membrane; format: cell-based
[20] = target: T4, Oxytocin receptor (Homo sapiens); experiment: Displacement of [125I]-OVTA from human oxytocin receptor expressed in COS7 cell membrane; format: cell membranes
[21] = target: T4, Oxytocin receptor (Homo sapiens); experiment: Ratio of EC50 for human oxytocin receptor high affinity site expressed in HEK293 cells coexpressing Rluc8-tagged Galphaq, N-terminal GFP-tagged Ggamma2 and Gbeta1 protein to Ki for human oxytocin receptor high affinity site expressed in COS7 cell membrane; format: cell-based
Mus musculus = experiment: Effect on social behavior in OXTR+/- DBA/2J mouse assessed as increase in time spent exploring stranger mouse over time spent exploring empty cage at 0.5 ng/mouse, icv administered as single dose measured for 10 mins by three chamber method; format: functional, organism-based

Row | SMILES | pEC50 (Oxytocin receptor [1]) | Emax [2] | pEC50 (Oxytocin receptor [3]) | Emax [4] | Emax [5] | pEC50 (Oxytocin receptor [6]) | Emax [7] | pEC50 (Oxytocin receptor [8]) | Emax [9] | pEC50 (Oxytocin receptor [14]) | further results
1 | CC[C@H](C)[C@@H]1NC(=O)[C@H](Cc2ccc(O)cc2)NC(=O)CCSSC[C@@H](C(=O)N2CCC[C@H]2C(=O)N[C@@H](CCCCNC(=O)CCCCCCCCCCCCC(=O)NCCCC[C@H](NC(=O)[C@@H]2CCCN2C(=O)[C@@H]2CSSCCC(=O)N[C@@H](Cc3ccc(O)cc3)C(=O)N[C@@H]([C@@H](C)CC)C(=O)N[C@@H](CCC(N)=O)C(=O)N[C@@H](CC(N)=O)C(=O)N2)C(=O)NCC(N)=O)C(=O)NCC(N)=O)NC(=O)[C@H](CC(N)=O)NC(=O)[C@H](CCC(N)=O)NC1=O (I: [Mpa]YIQNCPKG-NH2 / II: [Mpa]YIQNCPKG-NH2; disulfide I:1-I:6, II:1-II:6; linker I:8-II:8 via C14 diacid) | – | -0.11 | 7.53 | -0.1 | -0.11 | – | -0.145 | 7.81 | -0.144 | 7.23 | pEC50 (Oxytocin receptor [15]): 10.96; pEC50 (Oxytocin receptor [16]): 11.85; pEC50 (Oxytocin receptor [17]): 6.06; pEC50 (Oxytocin receptor [18]): 6.52
2 | CC[C@H](C)[C@@H]1NC(=O)[C@H](Cc2ccc(O)cc2)NC(=O)[C@@H](N)CSSC[C@@H](C(=O)N2CCC[C@H]2C(=O)N[C@H](C(=O)NCC(N)=O)[C@@H](C)CC)NC(=O)[C@H](CC(N)=O)NC(=O)[C@H](CO)NC1=O (H-CYISNCPIG-NH2; disulfide 1-6) | – | – | – | – | – | – | – | – | – | – | Activity (Danio rerio): Active
3 | CCCCCCCC(=O)NCCCC[C@H](NC(=O)[C@@H]1CCCN1C(=O)[C@@H]1CSSCCC(=O)N[C@@H](Cc2ccc(O)cc2)C(=O)N[C@@H]([C@@H](C)CC)C(=O)N[C@@H](CCC(N)=O)C(=O)N[C@@H](CC(N)=O)C(=O)N1)C(=O)NCC(N)=O ([Mpa]YIQNCPK(Octanoyl)G-NH2; disulfide 1-6) | – | – | 8.39 | -0.11 | – | – | – | – | – | – | –
4 | CC[C@H](C)[C@@H]1NC(=O)[C@H](Cc2ccc(O)cc2)NC(=O)CCSSC[C@@H](C(=O)N2CCC[C@H]2C(=O)N[C@@H](CCCCN)C(=O)NCC(N)=O)NC(=O)[C@H](CC(N)=O)NC(=O)[C@H](CCC(N)=O)NC1=O ([Mpa]YIQNCPKG-NH2; disulfide 1-6) | 7.48 | -0.08 | 8.40 | -0.11 to -0.1 | -0.15 | 8.55 | -0.14 | 9.04 | -0.15 | 9.12 | Ratio [19]: 10; KiH [20]: 21 pM; KiL [20]: 3.35 nM; pEC50 (Oxytocin receptor [11]): 9.58; pEC50 (Oxytocin receptor [13]): 7.13; Ratio [21]: 10
5 | CC[C@H](C)[C@@H]1NC(=O)[C@H](Cc2ccc(O)cc2)NC(=O)[C@@H](N)CSSC[C@@H](C(=O)N2CCC[C@H]2C(=O)N[C@@H](CC(C)C)C(=O)NCC(N)=O)NC(=O)[C@H](CC(N)=O)NC(=O)[C@H](CCC(N)=O)NC1=O | – | – | – | – | – | – | – | – | – | – | Activity (Mus musculus): Active

More lines, main results first:

Row | pEC50 (Oxytocin receptor [1]) | Emax [2] | pEC50 (Oxytocin receptor [3]) | Emax [4] | Emax [5] | pEC50 (Oxytocin receptor [6]) | Emax [7] | pEC50 (Oxytocin receptor [8]) | Emax [9] | pEC50 (Oxytocin receptor [14]) | SMILES | further results
6 | 7.59 | -0.14 | 7.93 | -0.13 | -0.13 | 7.66 | – | – | – | – | CC[C@H](C)[C@@H]1NC(=O)[C@H](Cc2ccc(O)cc2)NC(=O)CCSSC[C@@H](C(=O)N2CCC[C@H]2C(=O)N[C@@H](CCCCNC(=O)CCCCC(=O)NCCCC[C@H](NC(=O)[C@@H]2CCCN2C(=O)[C@@H]2CSSCCC(=O)N[C@@H](Cc3ccc(O)cc3)C(=O)N[C@@H]([C@@H](C)CC)C(=O)N[C@@H](CCC(N)=O)C(=O)N[C@@H](CC(N)=O)C(=O)N2)C(=O)NCC(N)=O)C(=O)NCC(N)=O)NC(=O)[C@H](CC(N)=O)NC(=O)[C@H](CCC(N)=O)NC1=O (I: [Mpa]YIQNCPKG-NH2 / II: [Mpa]YIQNCPKG-NH2; disulfide I:1-I:6, II:1-II:6; linker I:8-II:8 via Adipoyl) | –
7 | 7.39 | -0.14 | – | -0.1 | -0.14 | 7.66 | -0.17 | 7.76 | -0.15 | – | CC[C@H](C)[C@@H]1NC(=O)[C@H](Cc2ccc(O)cc2)NC(=O)CCSSC[C@@H](C(=O)N2CCC[C@H]2C(=O)N[C@@H](CCCCNC(=O)CCCCCCCCC(=O)NCCCC[C@H](NC(=O)[C@@H]2CCCN2C(=O)[C@@H]2CSSCCC(=O)N[C@@H](Cc3ccc(O)cc3)C(=O)N[C@@H]([C@@H](C)CC)C(=O)N[C@@H](CCC(N)=O)C(=O)N[C@@H](CC(N)=O)C(=O)N2)C(=O)NCC(N)=O)C(=O)NCC(N)=O)NC(=O)[C@H](CC(N)=O)NC(=O)[C@H](CCC(N)=O)NC1=O (I: [Mpa]YIQNCPKG-NH2 / II: [Mpa]YIQNCPKG-NH2; disulfide I:1-I:6, II:1-II:6; linker I:8-II:8 via Sebacoyl) | pEC50 (Oxytocin receptor [10]): 7.96; pEC50 (Oxytocin receptor [11]): 11.55; pEC50 (Oxytocin receptor [12]): 11.59; pEC50 (Oxytocin receptor [13]): 7.89
8 | 6.74 | -0.08 | 7.70 | -0.11 | -0.13 | – | -0.15 | 7.42 | -0.16 | 7.85 | CC[C@H](C)[C@@H]1NC(=O)[C@H](Cc2ccc(O)cc2)NC(=O)CCSSC[C@@H](C(=O)N2CCC[C@H]2C(=O)N[C@@H](CCCCNC(=O)CCCCCCCCCCC(=O)NCCCC[C@H](NC(=O)[C@@H]2CCCN2C(=O)[C@@H]2CSSCCC(=O)N[C@@H](Cc3ccc(O)cc3)C(=O)N[C@@H]([C@@H](C)CC)C(=O)N[C@@H](CCC(N)=O)C(=O)N[C@@H](CC(N)=O)C(=O)N2)C(=O)NCC(N)=O)C(=O)NCC(N)=O)NC(=O)[C@H](CC(N)=O)NC(=O)[C@H](CCC(N)=O)NC1=O (I: [Mpa]YIQNCPKG-NH2 / II: [Mpa]YIQNCPKG-NH2; disulfide I:1-I:6, II:1-II:6; linker I:8-II:8 via C12 diacid) | pEC50 (Oxytocin receptor [16]): 11.92; pEC50 (Oxytocin receptor [18]): 6.87
